Data published in PMC6368403, “Identification of a bilirubin receptor that may mediate a component of cholestatic itch” (eLife, 2019).

Molecular target: T1, MRGPRC11 (Mus musculus, UniProt Q8CIP3)
T1 construct: expressed in transfected cells
T1 sequence (Q8CIP3 1-322): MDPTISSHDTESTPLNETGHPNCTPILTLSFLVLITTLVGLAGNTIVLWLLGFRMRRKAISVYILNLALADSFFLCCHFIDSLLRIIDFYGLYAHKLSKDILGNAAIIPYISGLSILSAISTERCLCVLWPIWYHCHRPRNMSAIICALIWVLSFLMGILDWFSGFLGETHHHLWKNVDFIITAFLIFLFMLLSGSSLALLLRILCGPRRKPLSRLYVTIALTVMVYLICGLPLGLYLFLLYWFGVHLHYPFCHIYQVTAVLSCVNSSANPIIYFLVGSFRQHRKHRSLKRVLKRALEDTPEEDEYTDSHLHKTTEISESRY
Assay: Ca2+ imaging and concentration-Ca2+ response in HEK293 cells expressing MRGPRC11
Type: cell-based
Conditions: three replicates, Fig 2-N
Description: All cultured cells were maintained in DMEM supplemented with 10% FBS and 1% Penicillin/Streptomycin at 37°C, 5% CO2. All data included were generated from cells tested for mycoplasma and found to be negative. Cells were imaged in calcium imaging buffer (CIB; 10 mM HEPES, 1.2 mM NaHCO3, 130 mM NaCl, 3 mM KCl, 2.5 mM CaCl2, 0.6 mM MgCl2, 20 mM glucose, and 20 mM sucrose at pH 7.4 and 290–300 mOsm). To monitor changes in intracellular [Ca^2+] ([Ca^2+]i), cells were loaded with either Fura 2-AM (HEK293 cells) or Fluo 4-AM (DRG neurons and mast cells) for 30 min in the dark at 37°C in CIB just prior to imaging. With Fura 2-AM, emission at 510 nm was monitored from excitation at both 340 nm and 380 nm. With Fluo 4-AM, emission at 520 nm was monitored from excitation at 488 nm. Cells were identified as responding if the intracellular [Ca^2+] rose by either 50% compared to baseline or 50% compared to the [Ca^2+]i change assayed during addition of 50 mM KCl (neurons only). Damaged, detached, high-baseline, and motion-activated cells were excluded from analysis.
In initial screens, HEK293 cells stably expressing the murine G-protein alpha-subunit Gα15, a unique Gα protein that non-selectively couples a large variety of GPCRs to phospholipase C ^30, were plated on poly-D-lysine-coated coverslips and transiently transfected with constructs encoding the MRGRPR of interest. 12–24 hr later, cells were loaded with the Fura 2-AM. Unless otherwise specified, compounds were perfused into the imaging chamber for approximately thirty seconds after a baseline period was established. Response was then monitored at 5 s intervals for an additional 60 s.
HEK293 cells stably expressing either MRGPRA1, MRGPRX4, and MRGRPC11 were seeded in poly-D-lysine-coated 96-well plates at 10,000 cells/well. Cells were loaded with Fura 2–AM, washed twice, and maintained in CIB. Haem metabolites were freshly dissolved in DMSO in dim light and then diluted into a buffer comprised of 20 mM Tris and 150 mM NaCl at pH 8.8. Potential changes in pH were evaluated prior to each experiment. EC50 values were determined from dose-responses performed in triplicate, repeated 2–4 times. To determine potential antagonism by QWF against bilirubin, cells were treated with varying doses of QWF for 1 min in CIB prior to application of agonist.
HEK293 stable cell lines expressing GFP-tagged MRGPRA3, MRGPRC11, MRGPRD, MRGPRX1, and MRGPRX2 were generated in previously described reports ([Liu et al., 2009]; [Liu et al., 2012]; [McNeil et al., 2015]). Briefly, plasmids containing the receptor of interest were transfected into HEK cells using Lipofectamine 3000. After 3 days, cells were then selected using 0.5 mg/mL G418. After 3 weeks, monoclonal colonies were established and each the highest expressing clones were identified. For this study, Mrgpra1 and MRGPRX4 were inserted into pEGFP-N1 and transfected into HEK293 cells. MRGPR-positive cells were selected using 0.5 mg/mL G418 for three weeks, after which GFP-positive cells were sorted by FACS and monoclonally expanded. Two lines expressing similar levels of MRGPRA1 and MRGPRX4, as measured by GFP fluorescence, were selected for study.

Measured: Ca2+ response (concentration-Ca2+ response curve), replicate values

C=CC1=C(C)/C(=C/c2[nH]c(Cc3[nH]c(/C=C4\NC(=O)C(C)=C4C=C)c(C)c3CCC(=O)O)c(CCC(=O)O)c2C)NC1=O [bilirubin, bilirubin IXα]
0: [Ligand] 3.90625e-6 M | [Ligand] 7.8125e-6 M | [Ligand] 1.5625e-5 M | [Ligand] 3.125e-5 M | [Ligand] 6.25e-5 M | [Ligand] 0.000125 M | [Ligand] 0.00025 M | [Ligand] 0.0005 M
